Experimental findings from patent US9802990B2, “Functional peptides for obesity disorders” (DANONE, S.A., priority 2013, dated 2017) are described below.

Like-named read-outs stand apart in the source and are kept apart here. Where no end group is shown, it is not given here.

One data set concerns the target T1, PL (pancreatic lipase) (Sus scrofa, UniProt P00591).
T1 sequence (P00591 1-450): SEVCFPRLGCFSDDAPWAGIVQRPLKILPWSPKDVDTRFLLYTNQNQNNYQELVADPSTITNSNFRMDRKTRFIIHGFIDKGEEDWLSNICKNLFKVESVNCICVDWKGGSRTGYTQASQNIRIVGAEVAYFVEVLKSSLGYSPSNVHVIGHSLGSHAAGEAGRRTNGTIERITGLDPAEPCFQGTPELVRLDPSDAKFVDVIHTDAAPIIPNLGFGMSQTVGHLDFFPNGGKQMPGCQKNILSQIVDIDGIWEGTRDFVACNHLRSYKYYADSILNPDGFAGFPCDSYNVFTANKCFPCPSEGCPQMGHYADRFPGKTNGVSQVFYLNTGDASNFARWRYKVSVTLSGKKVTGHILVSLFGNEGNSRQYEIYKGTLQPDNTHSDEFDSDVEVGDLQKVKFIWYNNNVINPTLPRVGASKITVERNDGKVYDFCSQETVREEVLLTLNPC
The experiment in a line: PL inhibition assay with 4-methyl umbelliferyl oleate (4MUO), fluorescence. In kind it is biochemical. The following applies: synthesized peptides. As for the experimental part:
Inhibition of PL was determined using 4-methyl umbelliferyl oleate (4MUO) as substrate as described by Sugiyama et al. (Oligomeric procyanidins in apple polyphenol are main active components for inhibition of pancreatic lipase and triglyceride absorption. J Agric Food Chem (2007); 55: 4604-4609) with some modifications. Aliquots of 25 μl of each peptide extract were incubated with 25 μl of PL solution (1 mg/ml) and preincubated for 10 minutes at 26° C. with stirring of 500 rpm. Reaction was initiated by adding 50 μl of 4MUO (0.1 mM) dissolved in Dulbecco's buffer. After incubation at 26° C. for 20 minutes with constant stirring (500 rpm) the reaction was stopped by adding 100 μl of 0.1 M sodium citrate buffer (pH 4.2). The amount of 4-methyl umbelliferone released by the enzyme was determined by fluorescence. Peptide extracts were used as inhibitors in the enzymatic assay but had to be diluted 1/20 or 1/50 because of the interference between the fluorescence and the buffer containing the peptides.

Data set [1] can be described thus: In vitro enzymatic digestion model of the digestive tract (pepsin, pancreatin, bile), HPLC. The following applies: for metabolised at 0.5 h / metabolised at 2 h / metabolised at 0.25 h / metabolised at 1 h / metabolised at 5 min: read-out: Degradation (%); for degradation in the in vitro digestion model (in words): HPLC, completely degraded = at the beginning of the intestinal phase, resistant ones finally degraded at the end; for metabolised at 0.25 h: Intestinal phase 15 min.; for metabolised at 1 h: Intestinal phase 60 min.; for metabolised at 5 min: Oral phase 5 min. It counts as in vitro ADME. An excerpt: An in vitro enzymatic digestion model of an in vivo digestive tract was developed for mimicking the physiological conditions to check and certify that each selected peptide was differently degraded throughout the gastro-intestinal tract by the digestive process. Pepsin, pancreatin and bile concentrations were optimized using a published experimental design (Granado-Lorencio et al (2007). J. Agri. Food. Chem., 55, 6387-6394).

Data set [2] relates to C. elegans wild type strain N2. Description: C. elegans body fat reduction, Nile Red staining. In kind it is in vivo, Caenorhabditis elegans. The settings on record: for % Fluorescence Reduction: nematodes fed NG with peptides alone or in Savia soy fermented product, alone or mixed, 1 μg/mL final concentration, Nile Red; for % Fluorescence Reduction C. elegans: synthesized peptides at 1 μg/mL of final concentration. The method, then:
The ability to reduce body fat content in the nematode C. elegans was analyzed in a group of 5 peptide extracts previously obtained from glycinin (see Table 4). These samples were selected by their high effect on PL and PLA2 in vitro inhibition. Specifically, 5 peptide extracts were selected from the PLA2 inhibition assay (M20G, M5G, M31G, M27G and M29G). Body fat content was analyzed in the C. elegans wild type strain N2 by Red Nile dying of living nematodes. Experiments were carried out with age-synchronized populations, starting from egg-stage to young adult stage (3-day adults). During the experiments, worms were cultured in the NGM agar plates as control condition, NGM with the corresponding peptide extracts (100 μL/plate) and NGM with 6 μg/mL of Orlistat as positive control. Nile Red was added on top of the NG plates already seeded with Escherichia coli OP50 strain to a final concentration of 0.05 μg/ml. After incubation at 20° C., young adult worms (60 worms per condition) were taken to measure the in vivo fluorescence in a VersaFluor™ Fluorometer System. Fluorescence obtained in treated worms was calculated from fluorescence of worms fed in control conditions (reference sample). Experiments were carried out by duplicate.
From these purified fractions, a total of 11 peptides were selected to be synthesized and evaluated in vivo in the obesity model of C. elegans (Table 9). All peptides were evaluated at 1 μg/mL of final concentration.
We selected 5 peptides obtained from hydrolysis of glycinin with strain 6 (P8a, P6a, P14c, P16f, P14b) The peptides from glycinin were added to a soy fermented product (Savia® from Danone) both alone or mixed at final concentration of 1 μg/mL. Nematodes were fed with these products and then total lipids were quantified by Nile Red staining.

In data set [3] the target is PLA2 (pancreatic phospholipase A2) (Homo sapiens, UniProt P04054). The experiment in a line: PLA2 inhibition assay by HPLC with DOPC as substrate. In kind it is biochemical. As for the experimental part:
Inhibition of PLA2 enzyme was determined by High Performance Liquid Chromatography (HPLC) using 1,2-dioleoyl-sn-glycero-3-phosphocholine (DOPC) as substrate as described by Singh et al. (A rapid isocratic high-performance liquid chromatography method for determination of cholesterol and 1,2-dioleoyl-sn-glycero-3-phosphocholine. Journal of Chromatography (2005); 1073:347-353). Waters 2695 HPLC with Waters 2996 Photodiode detector Array and a C8 column Hypersil BDS (250×4.6 mm, […]) were used carrying out an eluent isocratic method formed by a mixture of ammonium phosphate buffer 50 mM pH 2.7:methanol (15:85, v/v).

For orientation: IC50 means the concentration needed to halve the response being measured. A low value points to higher potency.

Chain of PLA2 (pancreatic phospholipase A2) (P04054 23-148, species assumed): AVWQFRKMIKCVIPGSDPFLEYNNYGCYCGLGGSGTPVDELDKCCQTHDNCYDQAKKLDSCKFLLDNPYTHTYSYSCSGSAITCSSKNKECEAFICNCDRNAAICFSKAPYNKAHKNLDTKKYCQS

In turn, “QGENEGEDKGAIVT [Peptide P14b, QGENEGEDKGAIVT]” had an IC50 against PL (pancreatic lipase) of 346 µM. For the same substance, the values for the metabolised at 0.5 h in data set [1] (Gastric phase 30 min.) and in data set [1] (Intestinal phase 30 min.) were 6.7% and 48.9%, respectively. Further, the metabolised at 2 h in data set [1] (Gastric phase 120 min.) was 8.7%; in data set [1] (Intestinal phase 120 min.), 100%. The “degradation in the in vitro digestion model (in words)” value in data set [1] is “resistant until the end of the process”. Besides, the metabolised at 0.25 h in data set [1] came out at 36.7%. In addition, the metabolised at 1 h in data set [1] is 68.8%. Also, the metabolised at 5 min in data set [1] was determined as 6%. Further, in data set [2], the “% Fluorescence Reduction” value was 30.25 ± 4.2%. In addition, the “% Fluorescence Reduction C. elegans” value in data set [2] is given as 35.30 ± 6.1%. Further, the “Percentage of PLA2 inhibition” value in data set [3] (peptide 0.035 mg/ml) is given as 5.9 ± 5.0%; in data set [3] (peptide 0.35 mg/ml), 22.2 ± 5.6%; in data set [3] (peptide 2 mg/ml), 23.8 ± 5.5%; in data set [3] (peptide 3.5 mg/ml), 28.8 ± 3.1%.

Turning to SDNFEY [Peptide P6a, SDNFEY], on PL (pancreatic lipase), the IC50 was 55.6 µM. In addition, the metabolised at 0.5 h in data set [1] (Gastric phase 30 min.) was 31%; in data set [1] (Intestinal phase 30 min.), 100%. Besides, the metabolised at 2 h in data set [1] (Gastric phase 120 min.) came to 66.9%; in data set [1] (Intestinal phase 120 min.) it was 100%. Also, the metabolised at 0.25 h in data set [1] was 100%. Moreover, the metabolised at 1 h in data set [1] was 100%. Moreover, the metabolised at 5 min in data set [1] amounted to 23.7%. Also, in data set [2], the “% Fluorescence Reduction” value is 36.2 ± 4.1%. Moreover, the “% Fluorescence Reduction C. elegans” value in data set [2] is 40.90 ± 11.6%. The “Percentage of PLA2 inhibition” value in data set [3] (peptide 0.035 mg/ml) came out at 10.6 ± 5.0%; in data set [3] (peptide 0.35 mg/ml), 12.1 ± 4.0%; in data set [3] (peptide 2 mg/ml), 24.5 ± 1.4%; in data set [3] (peptide 3.5 mg/ml), 31.9 ± 5.5%.

At PL (pancreatic lipase), SVIKPPTD [Peptide P8a, SVIKPPTD] had a 50% inhibitory concentration (IC50) of 68.9 µM. Besides, the “Degradation (%)” value in data set [1] (Gastric phase 30 min.) is −1.3%; in data set [1] (Gastric phase 120 min.), −1.0%. Further, in data set [1], the “degradation in the in vitro digestion model (in words)” value was “resistant until the end of the process”. Further, in data set [1], the metabolised at 0.25 h was 51.2%. Also, the metabolised at 0.5 h in data set [1] (Intestinal phase 30 min.) worked out at 71.6%. In addition, the metabolised at 1 h in data set [1] came out at 90.7%. In data set [1] (Intestinal phase 120 min.), the metabolised at 2 h came out at 100%. For the same substance, in data set [1], the metabolised at 5 min is 1.7%. For the same substance, the “% Fluorescence Reduction” value in data set [2] came out at 41.7 ± 4.02%. Moreover, in data set [2], the “% Fluorescence Reduction C. elegans” value is on record as 44.67 ± 10.5%. The “Percentage of PLA2 inhibition” value in data set [3] (peptide 0.035 mg/ml) amounted to 12.7 ± 6.1%; in data set [3] (peptide 0.35 mg/ml) it was 12.9 ± 3.9%; in data set [3] (peptide 2 mg/ml), 26.0 ± 6.4%; in data set [3] (peptide 3.5 mg/ml), 20.1 ± 7.7%.
